For orientation: CC50 means the concentration at which the toxic effect on the cells reaches its halfway point. In general, EC50 refers to the concentration that produces a half-maximal response.

The source of these data is patent publication US20230355626A1, “INHIBITORS OF HUMAN IMMUNODEFICIENCY VIRUS REPLICATION” (VIIV HEALTHCARE UK (NO.5) LIMITED, priority 2020, published 2023).

Bounds are passed on as bounds.

A short description of data set [1]: Compound cytotoxicity, XTT-based colorimetric assay. The class given is cell-based. The following applies: human; uninfected MT2 cells, day 4, XTT assay. The method, then:
Compound cytotoxicity and the corresponding CC50 values were determined using the same protocol as described in the antiviral assay except that uninfected cells were used. Cytotoxicity was assessed on day 4 in uninfected MT2 cells by using an XTT (2,3-bis[2-Methoxy-4-nitro-5-sulfophenyl]-2H-tetrazolium-5-carboxyanilide inner salt)-based colorimetric assay (Sigma-Aldrich, St Louis, Mo).

For another data set, the system named is recombinant NL4-3 virus. The experiment in a line: HIV cell culture assay (antiviral activity, luciferase readout in infected MT-2 cells). It counts as cell-based. The following applies: Human immunodeficiency virus 1, NL43, MT2. As for the experimental part:
HIV cell culture assay—MT-2 cells, 293T cells and the proviral DNA clone of NL4-3 virus were obtained from the NIH AIDS Research and Reference Reagent Program. MT-2 cells were propagated in RPMI 1640 media supplemented with 10% heat inactivated fetal bovine serum (FBS), 100 μg/ml penicillin G and up to 100 units/mL streptomycin. The 293T cells were propagated in DMEM media supplemented with 10% heat inactivated FBS, 100 μg/mL penicillin G and 100 μg/mL streptomycin. A recombinant NL4-3 proviral clone, in which a section of the nef gene was replaced with the Renilla luciferase gene, was used to make the reference virus used in these studies. The recombinant virus was prepared through transfection of the recombinant NL4-3 proviral clone into 293T cells using Transit-293 Transfection Reagent from Mirus Bio LLC (Madison, WI). Supernatant was harvested after 2-3 days and the amount of virus present was titered in MT-2 cells using luciferase enzyme activity as a marker by measuring luciferase enzyme activity. Luciferase was quantitated using the EnduRen Live Cell Substrate from Promega (Madison, WI). Antiviral activities of compounds toward the recombinant virus were quantified by measuring luciferase activity in MT-2 cells infected for 4-5 days with the recombinant virus in the presence of serial dilutions of the compound.
The 50% effective concentration (EC50) was calculated by using the exponential form of the median effect equation where (Fa)=1/[1+(ED50/drug conc.)m] (Johnson VA, Byington RT. Infectivity Assay. In Techniques in HIV Research. ed. Aldovini A, Walker BD. 71-76. New York: Stockton Press.1990). Curve fitting and analysis were performed with ActivityBase XE Runner software version 9.1.0.4 using model 203 (ID Business Solutions, LTD, Guildford, UK).

Regarding `Cn1nc(NS(C)(=O)=O)c2c(Cl)ccc(-n3c([C@H](Cc4cc(F)cc(F)c4)NC(=O)Cn4nc(C(F)F)c5c4C(F)(F)[C@@H]4C[C@H]54)nc4nc(OC5CC=CC5)ccc4c3=O)c21` (atropisomer, axis not shown; (P)) [Example 1, N-((S)-1-((3P)-3-(4-chloro-1-methyl-3-(methylsulfonamido)-1H-indazol-7-yl)-7-(cyclopent-3-en-1-yloxy)-4-oxo-3,4-dihydropyrido[2,3-d]pyrimidin-2-yl)-2-(3,5-difluorophenyl)ethyl)-2-((3bS,4aR)-3-(difluoromethyl)-5,5-difluoro-3b,4,4a,5-tetrahydro-1H-cyclopropa[3,4]cyclopenta[1,2-c]pyrazol-1-yl)acetamide], in data set [1], the CC50 at 4 day is over 100 nM. For the same compound, in the data set on recombinant NL4-3 virus, the half-maximal effective concentration (EC50) came to 0.024 nM. Compound `Cn1nc(NS(C)(=O)=O)c2c(Cl)ccc(-n3c([C@H](Cc4cc(F)cc(F)c4)NC(=O)Cn4nc(C(F)F)c5c4C(F)(F)[C@@H]4C[C@H]54)nc4nc(OCc5ccncc5)ccc4c3=O)c21` (atropisomer, axis not shown; (P)) [Example 2, N-((S)-1-((3P,3P)-3-(4-chloro-1-methyl-3-(methylsulfonamido)-1H-indazol-7-yl)-4-oxo-7-(pyridin-4-ylmethoxy)-3,4-dihydropyrido[2,3-d]pyrimidin-2-yl)-2-(3,5-difluorophenyl)ethyl)-2-((3bS,4aR)-3-(difluoromethyl)-5,5-difluoro-3b,4,4a,5-tetrahydro-1H-cyclopropa[3,4]cyclopenta[1,2-c]pyrazol-1-yl)acetamide] showed a CC50 at 4 day in data set [1] of over 100 nM. The half-maximal effective concentration (EC50) in the data set on recombinant NL4-3 virus stood at 0.06 nM. In data set [1], `Cn1nc(NS(C)(=O)=O)c2c(Cl)ccc(-n3c([C@H](Cc4cc(F)cc(F)c4)NC(=O)Cn4nc(C(F)F)c5c4C(F)(F)[C@@H]4C[C@H]54)nc4nc(OCc5cccnc5)ccc4c3=O)c21` (atropisomer, axis not shown; (P)) [Example 3, N-[(1S)-1-[(3P)-3-(4-chloro-3-methanesulfonamido-1-methyl-1H-indazol-7-yl)-4-oxo-7-[(pyridin-3-yl)methoxy]-3H,4H-pyrido[2,3-d]pyrimidin-2-yl]-2-(3,5-difluorophenyl)ethyl]-2-[(2S,4R)-9-(difluoromethyl)-5,5-difluoro-7,8-diazatricyclo[4.3.0.0^2,^4]nona-1(6),8-dien-7-yl]acetamide] returned a CC50 at 4 day of over 100 nM. Moreover, the EC50 in the data set on recombinant NL4-3 virus amounted to 0.048 nM. In turn, `Cn1nc(NS(C)(=O)=O)c2c(Cl)ccc(-n3c([C@H](Cc4cc(F)cc(F)c4)NC(=O)Cn4nc(C(F)F)c5c4C(F)(F)[C@@H]4C[C@H]54)nc4nc(OCCC(C)(C)C(F)(F)F)ccc4c3=O)c21` (atropisomer, axis not shown; (P)) [Example 4, N-((S)-1-((3P)-3-(4-chloro-1-methyl-3-(methylsulfonamido)-1H-indazol-7-yl)-4-oxo-7-(4,4,4-trifluoro-3,3-dimethylbutoxy)-3,4-dihydropyrido[2,3-d]pyrimidin-2-yl)-2-(3,5-difluorophenyl)ethyl)-2-((3bS,4aR)-3-(difluoromethyl)-5,5-difluoro-3b,4,4a,5-tetrahydro-1H-cyclopropa[3,4]cyclopenta[1,2-c]pyrazol-1-yl)acetamide] displayed a half-maximal cytotoxic concentration (CC50) at 4 day in data set [1] of over 200 nM. The EC50 in the data set on recombinant NL4-3 virus turned out to be 0.078 nM. Regarding `Cn1nc(NS(C)(=O)=O)c2c(Cl)ccc(-n3c([C@H](Cc4cc(F)cc(F)c4)NC(=O)Cn4nc(C(F)F)c5c4C(F)(F)[C@@H]4C[C@H]54)nc4nc(OCCC5CC(F)(F)C5)ccc4c3=O)c21` (atropisomer, axis not shown; (P)) [Example 32, N-((S)-1-((3P,3P)-3-(4-chloro-1-methyl-3-(methylsulfonamido)-1H-indazol-7-yl)-7-(2-(3,3-difluorocyclobutyl)ethoxy)-4-oxo-3,4-dihydropyrido[2,3-d]pyrimidin-2-yl)-2-(3,5-difluorophenyl)ethyl)-2-((3bS,4aR)-3-(difluoromethyl)-5,5-difluoro-3b,4,4a,5-tetrahydro-1H-cyclopropa[3,4]cyclopenta[1,2-c]pyrazol-1-yl)acetamide], the half-maximal cytotoxic concentration (CC50) at 4 day in data set [1] was over 100 nM.
